The text below walks through data of patent publication US4983328A, “N-(4-(3-aminopropyl)aminobutyl)-2-(ω-gua nidino-fatty-acid-amido(-2-substituted-ethanamide, salt thereof, and process for preparation thereof” (Bristol-Myers Company, priority 1981, dated 1991).

Data set [1] relates to mouse leukemia L-1210 cells. In words: growth inhibitory activity to cancer cells in vitro (L-1210, 48 hours). Format: cell-based. The conditions noted are these: for inhibition at 1.25 µg/mL: L1210, 1.25 mcg/ml; for inhibition at 2.5 µg/mL: L1210, 2.5 mcg/ml; for inhibition at 5 µg/mL: L1210, 5 mcg/ml; for inhibition at 10 µg/mL: L1210, 10 mcg/ml; for inhibition at 20 µg/mL: L1210, 20 mcg/ml; for inhibition at 40 µg/mL: L1210, 40 mcg/ml; for IC50: L1210, L-1210 cells, read-out: 50% inhibitory concentration. Here is the method:
DBA/2 mice were implanted with 10^5 mouse leukemia L-1210 cells. The ascites collected asceptically from the mice after 4 days of feeding was washed three times with physiological saline to obtain L-1210 cells, which was then suspended in RPMI 1640 culture medium [G. E. Moore, Journal of the American Medical Association, Vol. 199, 519 (1967); H. J. Morton, In Vitro, Vol. 6, 89 (1970)] to which 10% fetal calf serum and 5 μM 2-mercaptoethanol had been added, and the resulting suspension was diluted to 5×10^4 L-1210 cells per 0.9 ml. A microplate carrying 0.9 ml of the cell suspension and 0.1 ml of the culture medium containing the sample being tested was kept in a carbon dioxide incubator at 37° C. After 48 hours of cultivation, the number of cells was measured by means of a Coulter Counter (Coulter Electronics, Inc., U.S.A.) to obtain the growth inhibition (%)=(1--T/C )×100=[1-(number of grown cells in medium containing sample/(number of grown cells in control medium)]×100. The 50% growth inhibitory concentration was calculated from the values of growth inhibition at varied sample concentrations. The results of tests on typical compounds of this invention for the growth inhibition of L-1210 cells were as shown in Table 6.

Data set [2] can be described thus: acute toxicity in mice (single intraperitoneal administration). The conditions noted are these: mouse, in vivo, ip; mice, single i.p.; read-out: LD50 (median lethal dose on single administration). As to the method:
(§1) In Table 8 median lethal doses (LD50) of typical compounds of this invention are shown, measured in mice upon single intraperitoneal administration, as well as maximum tolerated doses in terms of total dose when a fixed amount per unit body weight was administered intraperitoneally to mice once a day for 6 consecutive days.
*Median lethal dose on single administration.

Data set [3] can be described thus: cumulative toxicity in mice (maximum tolerated dose, once a day for 6 consecutive days). The conditions noted are these: mouse, in vivo, ip, i.p. once a day for 6 consecutive days, total dose, read-out: Maximum Tolerated Dose (total dose not causing death). Here is the method:
as §1
**Maximum value of the total dose not causing death when a fixed amount
per unit body weight is administered to mice once a day for 6 consecutive

Data set [4] can be described thus: chemical stability: retention (%) after heating at 60° C. for 4 hours, by HPLC. Format: physicochemical. Here is the method:
The chemical stability of the present compound was evaluated by determining the retention (%) after heating at 60° C. for 4 hours. In Table 5 are shown the test results together with those for spergualin as reference. The retention was determined by means of high performance liquid chromatography (HPLC). The column was packed with Nucleosil® 5C18. The solvent used for spergualin was a mixture (6:94) of acetonitrile -0.01M sodium pentanesulfonate +0.01M Na2 HPO4 (pH 3), while that for the compounds of this invention was a mixture of acetonitrile -0.005M sodium pentanesulfonate ±0.01M Na2 HPO4 (pH 3). The mixture ratio in the latter case was varied for each particular compound. For instance, a mixing ratio of 10:90 was used for Compound No. 9, while that of 7:93 for Compound No. 22.

A further data set relates to mouse leukemia L-1210. In words: therapeutic effect on implanted cancer in mice (L-1210, survival over 30 days). It counts as in vivo, mouse (BDF1). To be noted: L1210, ip, 720 h, 6 days; for responders at 1.56 mg/kg / response vs control in vivo at 1.56 mg/kg: 1.56 mg/kg/day i.p.; for responders at 3.13 mg/kg / response vs control in vivo at 3.13 mg/kg: 3.13 mg/kg/day i.p.; for responders at 6.25 mg/kg / response vs control in vivo at 6.25 mg/kg: 6.25 mg/kg/day i.p.; for responders at 12.5 mg/kg / response vs control in vivo at 12.5 mg/kg: 12.5 mg/kg/day i.p.; for responders at 25 mg/kg / response vs control in vivo at 25 mg/kg: 25 mg/kg/day i.p. From the text:
BDF1 strain male mice (5 weeks old) were each inoculated intraperitoneally with 10^5 mouse leukemia L-1210 cells and treated once a day by intraperitoneal injection with a test compound dissolved in physiological saline for 6 consecutive days beginning from the day of inoculation. The mice were then observed for 30 days to determine the rate of prolongation of survival period=100×T/C=100×(average survival days of treated group)/(average survival days of control group).

Where [5] appears, read: read-out: Growth inhibition (%), (1-T/C) × 100.
Setting [6] is: read-out: Number of mice survived for 30 days (converted).
[7] abbreviates: read-out: Prolongation of survival period (%), T/C × 100.

In brackets after ≈: the same amount, converted by molar mass. A value given as a limit tells only on which side of the number the result lay.

With `N=C(N)NCCCCC(=O)NC(O)C(=O)NCCCCNCCCN` (centres unmarked) [Compound 2, N-[4-(3-aminopropyl)aminobutyl]-2-(5-guanidinopentanamido)-2-hydroxyethanamide], in data set [1] (setting [5]), the inhibition at 1.25 µg/mL stood at 9.6%, the inhibition at 2.5 µg/mL stood at 30.5%, the inhibition at 5 µg/mL is 46.9% and the inhibition at 10 µg/mL is 69.5%. Further, in data set [1] (setting [5]), the inhibition at 20 µg/mL was found to be 77.6% and the inhibition at 40 µg/mL came to 79.6%. Moreover, the inhibition at 80 µg/mL in data set [1] (L1210, 80 mcg/ml, read-out: Growth inhibition (%), (1-T/C) × 100) amounted to 79.6%. The IC50 in data set [1] was 5 µg/mL (≈ 13.9 µM). Moreover, the LD50 in data set [2] was more than 50 mg/kg. The MTD in data set [3] is more than 300 mg/kg.

With `N=C(N)NCCCC[C@H](O)CC(=O)NC(O)C(=O)NCCCCNCCCN` (single isomer, unassigned; (-)) [(-)-spergualin, reference compound], the amount remaining (usually what is left of the initial amount, in per cent) at 4 h in data set [4] (pH 2, pH 2) came to 88.1%; in data set [4] (pH 3, pH 3), 88%; in data set [4] (pH 4, pH 4) it was 87.8%; in data set [4] (pH 5, pH 5) it was 82.5%; in data set [4] (pH 6, pH 6), 46.5%; in data set [4] (pH 7, pH 7), 12.6%. The amount remaining at 4 h in data set [4] (pH 8, pH 8) is 6.1%; in data set [4] (pH 9, pH 9) it was 0%.

On to `COC(NC(=O)C[C@@H](O)CCCCNC(=N)N)C(=O)NCCCCNCCCN` (single isomer, unassigned; (+)) [Compound 22 (+), (+)-11-O-methylspergualin], for which the “Stability [Retention (%)]” value in data set [4] (pH 2) is listed as 79.7%; in data set [4] (pH 4), 100%; in data set [4] (pH 5) it was 100%; in data set [4] (pH 6) it was 100%; in data set [4] (pH 7) it was 100%; in data set [4] (pH 8), 100%. Besides, the “Stability [Retention (%)]” value in data set [4] (pH 9, 240 min) is given as 100%; in data set [4] (pH 10, 240 min), 95.6%.

Turning to `COC(NC(=O)CCCNC(=N)N)C(=O)NCCCCNCCCN` (centres unmarked) [Compound 7, N-[4-(3-aminopropyl)aminobutyl]-2-(4-guanidinobutanamido)-2-methoxyethanamide], in data set [1] (setting [5]), the inhibition at 1.25 µg/mL was 38.7%, the inhibition at 2.5 µg/mL was found to be 80.7%, the inhibition at 5 µg/mL came out at 98.5% and the inhibition at 10 µg/mL stood at 99.8%. In data set [1] (setting [5]), the inhibition at 20 µg/mL was 99.9% and the inhibition at 40 µg/mL stood at 99.3%. Further, the IC50 in data set [1] is 1.5 µg/mL (≈ 4.17 µM).

With `COC(NC(=O)CCCCCCNC(=N)N)C(=O)NCCCCNCCCN` (single isomer, unassigned; (-)) [Compound 9 (-), (-)-N-[4-(3-aminopropyl)aminobutyl]-2-(7-guanidinoheptanamido)-2-methoxyethanamide], the responders at 0.1 mg/kg in the data set with mouse leukemia L-1210 (0.10 mg/kg/day i.p., read-out: Number of mice survived for 30 days) is 0%. For the same compound, in the data set on mouse leukemia L-1210 (0.10 mg/kg/day i.p., read-out: Prolongation of survival period (%), T/C × 100), the response vs control in vivo at 0.1 mg/kg came to 110%. The responders at 0.2 mg/kg in the data set on mouse leukemia L-1210 (0.20 mg/kg/day i.p., read-out: Number of mice survived for 30 days (converted)) is 0%. Also, the response vs control in vivo at 0.2 mg/kg with mouse leukemia L-1210 (0.20 mg/kg/day i.p., read-out: Prolongation of survival period (%), T/C × 100) came to 127%. Further, the responders at 0.39 mg/kg with mouse leukemia L-1210 (0.39 mg/kg/day i.p., read-out: Number of mice survived for 30 days (converted)) was 50%. The response vs control in vivo at 0.39 mg/kg with mouse leukemia L-1210 (0.39 mg/kg/day i.p., read-out: Prolongation of survival period (%), T/C × 100) is more than 342%. For the same compound, the responders at 0.78 mg/kg in the data set on mouse leukemia L-1210 (0.78 mg/kg/day i.p., read-out: Number of mice survived for 30 days (converted)) was 50%. Moreover, the response vs control in vivo at 0.78 mg/kg in the data set on mouse leukemia L-1210 (0.78 mg/kg/day i.p., read-out: Prolongation of survival period (%), T/C × 100) is more than 370%. In addition, in the data set with mouse leukemia L-1210 (setting [6]), the responders at 1.56 mg/kg is 50%, the responders at 3.13 mg/kg was 75%, the responders at 6.25 mg/kg is 25% and the responders at 12.5 mg/kg is 50%. The responders at 25 mg/kg in the data set with mouse leukemia L-1210 (setting [6]) was 0%. Besides, in the data set on mouse leukemia L-1210 (setting [7]), the response vs control in vivo at 1.56 mg/kg was more than 356%, the response vs control in vivo at 3.13 mg/kg is more than 411%, the response vs control in vivo at 6.25 mg/kg is more than 336% and the response vs control in vivo at 12.5 mg/kg is more than 390%. For the same compound, in the data set with mouse leukemia L-1210 (setting [7]), the response vs control in vivo at 25 mg/kg came to 0%.

`COC(NC(=O)C[C@@H](O)CCCCNC(=N)N)C(=O)NCCCCNCCCN` (single isomer, unassigned; (-)) [22 (-), (-)-11-O-methylspergualin] came in with an amount remaining at 4 h in data set [4] (pH 2, pH 2) of 79.7%. For the same compound, the amount remaining at 4 h in data set [4] (pH 4, pH 4) was 100%. The fraction remaining at 4 h in data set [4] (pH 5, pH 5) was 100%. This compound displayed an amount remaining at 4 h in data set [4] (pH 6, pH 6) of 100%. In addition, in data set [4] (pH 7, pH 7), the fraction remaining at 4 h stood at 100%. The share remaining at 4 h in data set [4] (pH 8, pH 8) was determined as 100%. In data set [4] (pH 9, pH 9), this compound registered an amount remaining at 4 h of 97.6%. The fraction remaining at 4 h in data set [4] (pH 10, pH 10) stood at 95.7%. Moreover, in the data set with mouse leukemia L-1210 (setting [6]), the responders at 1.56 mg/kg was 0%, the responders at 3.13 mg/kg is 20%, the responders at 6.25 mg/kg was 80% and the responders at 12.5 mg/kg is 80%. Besides, the responders at 25 mg/kg with mouse leukemia L-1210 (setting [6]) is 100%. In addition, in the data set on mouse leukemia L-1210 (setting [7]), the response vs control in vivo at 1.56 mg/kg was 177%, the response vs control in vivo at 3.13 mg/kg is more than 290%, the response vs control in vivo at 6.25 mg/kg is more than 400% and the response vs control in vivo at 12.5 mg/kg is more than 408%. Moreover, the response vs control in vivo at 25 mg/kg in the data set on mouse leukemia L-1210 (setting [7]) is more than 423%.

For `CCCCOC(NC(=O)CCCCCCNC(=N)N)C(=O)NCCCCNCCCN` (centres unmarked) [Compound 13, N-[4-(3-aminopropyl)aminobutyl]-2-(7-guanidinoheptanamido)-2-butoxyethanamide], the fraction remaining at 4 h in data set [4] (pH 2, pH 2) amounted to 72.4%; in data set [4] (pH 3, pH 3) it was 90.1%; in data set [4] (pH 4, pH 4), 100%; in data set [4] (pH 6, pH 6) it was 100%; in data set [4] (pH 8, pH 8), 100%; in data set [4] (pH 9, pH 9), 98%. Moreover, the amount remaining at 4 h in data set [4] (pH 10, pH 10) was determined as 96%. Moreover, the inhibition at 1.25 µg/mL in data set [1] (setting [5]) worked out at 17%. The inhibition at 2.5 µg/mL in data set [1] (setting [5]) was found to be 21.3%. For the same compound, the inhibition at 5 µg/mL in data set [1] (setting [5]) stood at 24%. The inhibition at 10 µg/mL in data set [1] (setting [5]) was 33.2%. In addition, in data set [1] (setting [5]), the inhibition at 20 µg/mL stood at 65.7%. Further, the inhibition at 40 µg/mL in data set [1] (setting [5]) came out at 72.5%. Besides, the IC50 in data set [1] turned out to be 14 µg/mL (≈ 31.6 µM).
